Test results published in US11124785B2, “Rothia subtilisins, S8A family proteases, as therapeutic enzymes for application in gluten intolerance disorders” (TRUSTEES OF BOSTON UNIVERSITY, priority 2016, dated 2021).

Assays:
Type in all cases: biochemical
[1] = test system: wheat ATI proteins; experiment: Degradation of amylase-trypsin inhibitors (SDS-PAGE); conditions: ATIs 500 μg/ml, enzyme 10, 25 or 50 μg/ml, pH 8.0, up to 4 h
Description: (§1) FIGS. 15A-15F show effective ATI degradation by subtilisins from B. subtilis (nattokinase). […] ATI (500 μg/ml) incubated with Rmep from R. mucilaginosa (FIG. 15A) or nattokinase from B. subtilis (FIG. 15C) at 50, 25, or 10 μg/ml; FIGS. 15B and 15D, Gliadins (500 μg/ml) incubated with Rmep (FIG. 15B) or nattokinase (FIG. 15D) at 25 μg/ml. FIGS. 15E and 15F, ATIs incubated with control heat inactivated enzymes, Rmep (FIG. 15E) or nattokinase (FIG. 15F).
(§2) ATIs were isolated from wheat cultivars as described^3. They were incubated at a final concentration of 500 μg/ml with 10, 25 or 50 μg/ml Rmep (from R. mucilaginosa), or nattokinase (from B. subtilis). The controls incubations were carried out with heat-inactivated Rmep and nattokinase. Experiments were conducted in 50 mM Tris-HCl, pH 8.0. After 0, 15 min, 30 min, 1 h, and 4 h incubation, 20 μl aliquots were removed, mixed with SDS-sample buffer, heated at 85° C. for 5 min and analyzed by 4-12% SDS PAGE. Proteins were visualized with Coomassie Blue staining.

[2] = test system: gliadins; experiment: Gliadin degradation control of Example 3 (SDS-PAGE); conditions: gliadins 500 μg/ml, enzyme 25 μg/ml, pH 8.0
Description: as §1, §2

[3] = test system: gliadin-derived FRET substrate QGSFQP; experiment: FRET substrate hydrolysis, QGSFQP; conditions: substrate 100 μM, Rmep 1 μg/ml, pH 8.0
Description: FIG. 4D and FIG. 4E are representative graphs of the hydrolysis of gliadin-derived FRET substrates. FRET substrates containing QPQLPY (SEQ ID NO: 22), PQPQPQ (SEQ ID NO: 23) and QGSFQP (SEQ ID NO: 24), each at 100 μM, were incubated with Rmep […] and subtilisin A (FIG. 4E), at 1 μg/ml and 0.5 μg/ml, respectively. Controls were boiled Rmep and subtilisin A incubated with PQPQLPY (+) (SEQ ID NO: 25), PQPQPQ (⋄) (SEQ ID NO: 23) and QGSFQP (*) (SEQ ID NO: 24) (no activity, baseline).
FRET substrate hydrolysis—Three fluorescence resonance energy transfer (FRET) substrates comprising the hexapeptides QPQLPY (SEQ ID NO: 22), PQPQPQ (SEQ ID NO: 23) and QGSFQP (SEQ ID NO: 24) were synthesized with at the N-terminus the HILYTE FLUOR™ 488 label, and at the C-terminus with K(QXL520) (Anaspec, Fremont, Calif.). Rmep (1 μg/ml) and subtilisin A (0.5 μg/ml) were incubated with the substrates (100 μM) in 50 mM TrisHCl pH 8.0. Samples were incubated at 37° C. and fluorescence increase, indicating hydrolysis, was measured every 5 min for 30 min, and every 10 min for the next 30 min, at λex 485 nm and λem 520 nm, using a Genios microtiter plate reader in the kinetic mode.

Question: Which “degradation of wheat ATI proteins” value [1] does the source give for “Rmep: DEAE pooled fraction F2 of R. mucilaginosa ATCC 25296 extract with highest gluten-degrading enzyme activity; contains subtilisins C6R5V9_9MICC and C6R5W1_9MICC” here?
Answer: resistant to degradation

Question: And the degradation of gliadins [2]?
Answer: degraded

Question: What about the “hydrolysis of FRET substrate QGSFQP” value [3] of the same substance?
Answer: not cleaved
